Among the test systems are HT29 colon; RXF 393 renal; M14 melanoma; EKVX NSCLC; MDA-MB-435; MALME-3M melanoma; SF-539 CNS; KM12 colon; SF-268 CNS; HOP-62 NSCLC.
What all share (assay): inhibition of tumour cell growth, NCI panel, 48 h

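48-hour exposure; five concentrations; linearly interpolated endpoints. At the GI50, growth is halved. TGI is the concentration that stops growth completely.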

For `COC(=O)[C@]12CC[C@@H](C)[C@H](C)[C@@H]1C1=CC[C@@H]3[C@@]4(C)C(C=O)=C[C@@](C)(CO)[C@@H]4[C@H](O)C[C@@]3(C)[C@]1(C)CC2`, the GI50 with HT29 colon was 2.44 µM; in the experiment with RXF 393 renal it was 2.64 µM; with M14 melanoma, 4.13 µM; in the experiment on EKVX NSCLC it was 4.03 µM; in the experiment with MDA-MB-435 it was 3.29 µM; with MALME-3M melanoma, 2.62 µM. For the same molecule, the GI50 with SF-539 CNS was 10.1 µM; in the experiment with KM12 colon, 4.02 µM; in the experiment on SF-268 CNS it was 5.16 µM; in the experiment on HOP-62 NSCLC, 13.8 µM. The TGI worked out at 7.54 µM in the experiment on HT29 colon; 8.75 µM with RXF 393 renal; 17.8 µM in the experiment with M14 melanoma; 16 µM in the experiment on EKVX NSCLC; 13.4 µM with MDA-MB-435; 10.4 µM with MALME-3M melanoma. For the same molecule, the TGI is 22.8 µM in the experiment with SF-539 CNS, 15.3 µM with KM12 colon, 20.4 µM in the experiment on SF-268 CNS and 29.6 µM in the experiment with HOP-62 NSCLC.

For the molecule `O=C1C=C(NCCO)c2nccc3c2c1nc1ccccc13`, the GI50 was 26.9 µM with HT29 colon; 28.2 µM in the experiment with RXF 393 renal; 17.3 µM in the experiment with M14 melanoma; 26.5 µM in the experiment with EKVX NSCLC; 29.3 µM in the experiment with MDA-MB-435; 17.4 µM in the experiment with MALME-3M melanoma. Further, the GI50 was 22.9 µM with SF-539 CNS, 21 µM in the experiment with KM12 colon, 26.4 µM in the experiment on SF-268 CNS and 12.3 µM in the experiment with HOP-62 NSCLC. For the same molecule, the TGI is more than 100 µM with HT29 colon; 89.4 µM in the experiment on RXF 393 renal; 58.7 µM in the experiment with M14 melanoma; 92.2 µM with EKVX NSCLC; more than 100 µM with MDA-MB-435; 49 µM in the experiment on MALME-3M melanoma. The TGI in the experiment with SF-539 CNS was 73.1 µM; with KM12 colon it was more than 100 µM; in the experiment on SF-268 CNS it was more than 100 µM; with HOP-62 NSCLC it was 57.8 µM.

Consider `Cn1ncc(C#N)c1-c1ccc2c(c1)CN([C@H](CN)Cc1cccc(F)c1)C2=O`, for which the GI50 in the experiment on HT29 colon was 3.25 µM; in the experiment with RXF 393 renal, 0.172 µM; in the experiment with M14 melanoma it was 14.2 µM; with EKVX NSCLC, 5.63 µM; in the experiment with MDA-MB-435, 7.56 µM; in the experiment with MALME-3M melanoma it was 1.33 µM. Also, the GI50 in the experiment on SF-539 CNS is 0.193 µM; in the experiment with KM12 colon, 0.711 µM; in the experiment on SF-268 CNS, 20.1 µM; in the experiment with HOP-62 NSCLC, 23.6 µM. Further, the TGI was more than 100 µM in the experiment on HT29 colon; 2.43 µM in the experiment on RXF 393 renal; 57.1 µM with M14 melanoma; more than 92.1 µM in the experiment on EKVX NSCLC; more than 67.7 µM with MDA-MB-435; 11.3 µM in the experiment on MALME-3M melanoma. For the same molecule, the TGI with SF-539 CNS is 8.74 µM; in the experiment on KM12 colon, more than 100 µM; in the experiment on SF-268 CNS, more than 100 µM; in the experiment on HOP-62 NSCLC, more than 100 µM.

For `CCc1nc(C)cn1C(=O)OCc1nc2nc(Cl)nc(N3CCOCC3)c2[nH]1`, the GI50 with HT29 colon was 1 µM; with RXF 393 renal, 0.658 µM; with M14 melanoma it was 1.27 µM; in the experiment with EKVX NSCLC, 1.43 µM; with MDA-MB-435 it was 1.36 µM; in the experiment with MALME-3M melanoma, 1.56 µM. Further, the GI50 with SF-539 CNS was 1.27 µM; in the experiment on KM12 colon, 1.56 µM; with SF-268 CNS, 1.53 µM; with HOP-62 NSCLC, 1.54 µM. Also, the TGI is 4.04 µM in the experiment on HT29 colon; 2.01 µM in the experiment on RXF 393 renal; 3.1 µM in the experiment with M14 melanoma; 3.07 µM in the experiment with EKVX NSCLC; 2.71 µM in the experiment on MDA-MB-435; 2.95 µM in the experiment with MALME-3M melanoma. In addition, the TGI in the experiment on SF-539 CNS turned out to be 2.54 µM; in the experiment on KM12 colon it was 3.29 µM; in the experiment on SF-268 CNS, 3.06 µM; with HOP-62 NSCLC, 3.56 µM.

Take `O=S(=O)(NC1=NCCN1C(=S)SN1CCn2c1nsc2=S)c1ccc(Oc2ccccc2)cc1`: the GI50 with HT29 colon was 54.7 µM; in the experiment with RXF 393 renal it was 32.4 µM; with M14 melanoma it was more than 100 µM; with EKVX NSCLC it was more than 100 µM; in the experiment on MDA-MB-435 it was 30.4 µM; in the experiment with MALME-3M melanoma, 26.2 µM. The GI50 in the experiment with SF-539 CNS was 49.5 µM; in the experiment with KM12 colon, 39.7 µM; in the experiment on SF-268 CNS it was 57.3 µM; with HOP-62 NSCLC, more than 100 µM. The TGI is more than 100 µM in the experiment with HT29 colon; 86.1 µM in the experiment with RXF 393 renal; more than 100 µM in the experiment on M14 melanoma; more than 100 µM with EKVX NSCLC; more than 100 µM in the experiment with MDA-MB-435; more than 100 µM with MALME-3M melanoma. Also, the TGI in the experiment with SF-539 CNS, with KM12 colon, in the experiment with SF-268 CNS and in the experiment with HOP-62 NSCLC was more than 100 µM in each case.

As for `CN1CCC2(CC1)N=C(SCC(=O)Nc1cnc3ccccc3c1)C(c1ccc(Br)cc1)=N2`, the GI50 was 1.85 µM in the experiment with HT29 colon; 1.77 µM in the experiment on RXF 393 renal; 1.71 µM with M14 melanoma; 2.51 µM in the experiment with EKVX NSCLC; 1.72 µM with MDA-MB-435; 1.78 µM in the experiment with MALME-3M melanoma. Moreover, the GI50 was 1.74 µM with SF-539 CNS, 2.62 µM in the experiment on KM12 colon, 3.46 µM in the experiment on SF-268 CNS and 3.42 µM with HOP-62 NSCLC. For the same molecule, the TGI with HT29 colon was 3.64 µM; in the experiment with RXF 393 renal, 4.29 µM; with M14 melanoma it was 3.16 µM; with EKVX NSCLC, 10.2 µM; in the experiment on MDA-MB-435 it was 3.21 µM; in the experiment with MALME-3M melanoma, 3.36 µM. The TGI in the experiment with SF-539 CNS is 3.41 µM; in the experiment on KM12 colon, 6.55 µM; in the experiment with SF-268 CNS, 14.7 µM; in the experiment with HOP-62 NSCLC, 14.7 µM.

Take `O=C(/C=C/c1ccccc1)c1cccc2ccccc12`: the GI50 was 3.69 µM in the experiment with HT29 colon; 2.38 µM with RXF 393 renal; 2.39 µM in the experiment with M14 melanoma; 2.75 µM with EKVX NSCLC; 2.64 µM in the experiment on MDA-MB-435; 6.12 µM with MALME-3M melanoma. The GI50 in the experiment on SF-539 CNS was 3.5 µM; in the experiment with KM12 colon, 1.89 µM; in the experiment with SF-268 CNS it was 1.99 µM; in the experiment with HOP-62 NSCLC it was 4.25 µM. In addition, the TGI with HT29 colon is 12.9 µM; with RXF 393 renal, 8.04 µM; in the experiment on M14 melanoma, 5.19 µM; with EKVX NSCLC, 12.6 µM; with MDA-MB-435, 14.7 µM; in the experiment with MALME-3M melanoma, 22.4 µM. The TGI in the experiment on SF-539 CNS is 11 µM; in the experiment with KM12 colon, 3.77 µM; with SF-268 CNS it was 5.13 µM; in the experiment with HOP-62 NSCLC, 13.5 µM.
